Measured values: US11932610B1, “4-(5-(3-fluorophenyl)-4-phenyl-4H-1,2,4-triazol-3-ylthio)butanoic acid as an antimicrobial compound” (priority 2023, dated 2024)

Key:
[1] = system: Bacillus cereus, Staphylococcus aureus, Pseudomonas aeruginosa, Escherichia coli, Aspergillus flavus, Chrysosporium keratinophilum; test: agar plate disc-diffusion antimicrobial test; format: cell-based; conditions: 6 mm discs wetted with 10 μL of 10 mg/mL in DMSO; 37° C., 48 h (72 h for fungi); DMSO control zone subtracted
Description: The agar plate disc-diffusion method was applied. Sterilized filter papers (6 mm in diameter) were wetted with 10 μL of a solution of 4-(5-(3-fluorophenyl)-4-phenyl-4H-1,2,4-triazol-3-ylthio)butanoic acid (III) to be tested, containing 10 mg/mL in DMSO, and the discs were allowed to air dry. The discs were then placed onto the surface of agar plates (nutrient agar for bacteria and Sabouraud's dextrose agar for fungi) seeded with the test organism. Each plate contained 15 mLof the agar medium, previously seeded with 0.2 mL of the broth culture of each organism pregrown for 18 h. The plates were incubated at 37° C. for 48 h, and 72 h for fungi. The inhibition zones was measured in mm. Discs impregnated with DMSO were used as a control, and its inhibition zone was subtracted from the tested compound actual inhibition zone. […] The antibacterial activity was screened against gram positive bacteria namely Bacillus cereus and Staphylococcus aureus and gram-negative bacterial strains namely Pseudomonas aeruginosa and Escherichia coli, while the antifungal activity was screened against Aspergillus flavus and Chrysosporium keratinophilum.

melting point: 173 °C
SMILES: O=C(O)CCCSc1nnc(-c2cccc(F)c2)n1-c1ccccc1 [III, 4-(5-(3-fluorophenyl)-4-phenyl-4H-1,2,4-triazol-3-ylthio)butanoic acid]
antimicrobial activities against different microbes [1]: excellent antimicrobial activities
